Data reported in paper PMC4472624, “Pharmacokinetics of daptomycin in patients undergoing low-flow continuous venovenous hemodiafiltration” (Critical Care, 2015).
Read-outs that look alike come from different tables or passages of the source.

Experiments:
[1] = cited from earlier work
Description: In Japan, CVVHDF is preferentially performed with lower flow rates. Investigating effects of flow rate on DAP removal during co ...

[2] = Pharmacokinetics of daptomycin in patients undergoing low-flow CVVHDF; format: in vivo, human; details: 6 mg/kg i.v. every 48 hours, HPLC; for AUC / half-life: 6 mg/kg; for AUC: read-out: area under the concentration-time curve (AUC); for half-life: read-out: elimination half-life (t1/2) (converted)
Experimental: DAP (6 mg/kg) was administered intravenously every 48 hours to CVVHDF patients in the ICU. Blood and filtrate samples were collected at 0, 1, 1.5, 2, 5, 12, 24, and 48 hours after infusion. All collected samples were analyzed using HPLC according to the method of Tobin et al.. Maximum concentration (Cmax), elimination half-life (t1/2), area AUC, Cmin, volume of distribution (Vd), clearance (CL), fraction unbound, and sieving coefficient (Sc) were evaluated. Patient characteristics and CVVHDF parameters including blood, dialysate, and filtration flow rates were recorded.

[3] = low-flow CVVHDF, blood and filtrate samples, mean of three patients
[4] = human, blood, iv, low-flow CVVHDF, single patient, first listed
[5] = human, blood, iv, low-flow CVVHDF, single patient, second listed
[6] = human, blood, iv, low-flow CVVHDF, single patient, third listed

For `CCCCCCCCCC(=O)N[C@@H](Cc1c[nH]c2ccccc12)C(=O)N[C@H](CC(N)=O)C(=O)N[C@@H](CC(=O)O)C(=O)N[C@@H]1C(=O)NCC(=O)N[C@@H](CCCN)C(=O)N[C@@H](CC(=O)O)C(=O)N[C@H](C)C(=O)N[C@@H](CC(=O)O)C(=O)NCC(=O)N[C@H](CO)C(=O)N[C@@H]([C@H](C)CC(=O)O)C(=O)N[C@@H](CC(=O)c2ccccc2N)C(=O)O[C@@H]1C` [DAP, daptomycin], the “AUC/MIC required to obtain clinical success” value [1] is given as 1,061 mg hour/l, the “trough serum concentration (Cmin)” value ([2]; low-flow CVVHDF, single patient, first listed) is given as 2300 ng/mL and the “trough serum concentration (Cmin)” value ([2]; low-flow CVVHDF, single patient, second listed) is given as 24700 ng/mL. The “trough serum concentration (Cmin)” value ([2]; low-flow CVVHDF, single patient, third listed) was 14000 ng/mL, the CL of dialyzer [2, 3] was 1.20 ± 0.39 mL/min and the “sieving coefficient (Sc)” value [2, 3] was 0.08 ± 0.03. The CL of dialyzer ([2]; low-flow CVVHDF, blood and filtrate samples, single patient, first listed) was 1.70 mL/min, the CL of dialyzer ([2]; low-flow CVVHDF, blood and filtrate samples, single patient, second listed) was 0.88 mL/min and the CL of dialyzer ([2]; low-flow CVVHDF, blood and filtrate samples, single patient, third listed) was 0.96 mL/min. For the same compound, the AUC [2, 4] was 471 µg·h/mL, the half-life [2, 4] was 18.6 h and the AUC [2, 5] was 967 µg·h/mL. It also gave a half-life [2, 5] of 11.5 h, an AUC [2, 6] of 1260 µg·h/mL and a half-life [2, 6] of 70.5 h. It also gave a fraction unbound ([2]; human, blood, iv, ICU patients on low-flow CVVHDF, mean of three patients) of 0.058, a clearance ([2]; human, blood, iv, ICU patients on low-flow CVVHDF, mean of three patients, read-out: clearance (CL)) of 9.47 ± 4.56 mL/min and a Vd ([2]; human, blood, iv, ICU patients on low-flow CVVHDF, mean of three patients, read-out: volume of distribution (Vd)) of 26 ± 20.9 L. The Cmax ([2]; human, iv, ICU patients on low-flow CVVHDF, blood samples 0-48 hours, mean of three patients, read-out: Maximum concentration (Cmax)) was 50100 ± 12700 ng/mL.
